ChEMBL document CHEMBL4425128, “Functional Characterization of Cholera Toxin Inhibitors Using Human Intestinal Organoids” (J Med Chem, 2016)
Activity calls are given as the source filed them. No cut-off for these calls is given here.

Columns and labels:
[1] = biological target: Cystic fibrosis transmembrane conductance regulator (Homo sapiens) (UniProt P13569); test: Inhibition of CFTR in human intestinal organoids assessed as reduction in forskolin-induced oganoids swelling incubated for 4 hrs with cholera toxin followed by subsequent stimulation with 0.1 uM forskolin by calcein AM staining based confocal microscopy; settings: Intestine
[2] = Inhibition of cholera toxin in human intestinal organoids assessed as reduction in oganoids swelling using cholera toxin pre-incubated with compound for 4 hrs before organoid stimulation with cholera toxin by calcein AM staining based confocal microscopy; settings: Vibrio cholerae, Intestine
[3] = Inhibition of HRP-tagged Vibrio cholerae cholera enterotoxin subunit B5 binding to GM1 coated plates using GM1os-beta-NAc-propargyl

Sequence of Cystic fibrosis transmembrane conductance regulator (Homo sapiens) (P13569 whole entry, looked up): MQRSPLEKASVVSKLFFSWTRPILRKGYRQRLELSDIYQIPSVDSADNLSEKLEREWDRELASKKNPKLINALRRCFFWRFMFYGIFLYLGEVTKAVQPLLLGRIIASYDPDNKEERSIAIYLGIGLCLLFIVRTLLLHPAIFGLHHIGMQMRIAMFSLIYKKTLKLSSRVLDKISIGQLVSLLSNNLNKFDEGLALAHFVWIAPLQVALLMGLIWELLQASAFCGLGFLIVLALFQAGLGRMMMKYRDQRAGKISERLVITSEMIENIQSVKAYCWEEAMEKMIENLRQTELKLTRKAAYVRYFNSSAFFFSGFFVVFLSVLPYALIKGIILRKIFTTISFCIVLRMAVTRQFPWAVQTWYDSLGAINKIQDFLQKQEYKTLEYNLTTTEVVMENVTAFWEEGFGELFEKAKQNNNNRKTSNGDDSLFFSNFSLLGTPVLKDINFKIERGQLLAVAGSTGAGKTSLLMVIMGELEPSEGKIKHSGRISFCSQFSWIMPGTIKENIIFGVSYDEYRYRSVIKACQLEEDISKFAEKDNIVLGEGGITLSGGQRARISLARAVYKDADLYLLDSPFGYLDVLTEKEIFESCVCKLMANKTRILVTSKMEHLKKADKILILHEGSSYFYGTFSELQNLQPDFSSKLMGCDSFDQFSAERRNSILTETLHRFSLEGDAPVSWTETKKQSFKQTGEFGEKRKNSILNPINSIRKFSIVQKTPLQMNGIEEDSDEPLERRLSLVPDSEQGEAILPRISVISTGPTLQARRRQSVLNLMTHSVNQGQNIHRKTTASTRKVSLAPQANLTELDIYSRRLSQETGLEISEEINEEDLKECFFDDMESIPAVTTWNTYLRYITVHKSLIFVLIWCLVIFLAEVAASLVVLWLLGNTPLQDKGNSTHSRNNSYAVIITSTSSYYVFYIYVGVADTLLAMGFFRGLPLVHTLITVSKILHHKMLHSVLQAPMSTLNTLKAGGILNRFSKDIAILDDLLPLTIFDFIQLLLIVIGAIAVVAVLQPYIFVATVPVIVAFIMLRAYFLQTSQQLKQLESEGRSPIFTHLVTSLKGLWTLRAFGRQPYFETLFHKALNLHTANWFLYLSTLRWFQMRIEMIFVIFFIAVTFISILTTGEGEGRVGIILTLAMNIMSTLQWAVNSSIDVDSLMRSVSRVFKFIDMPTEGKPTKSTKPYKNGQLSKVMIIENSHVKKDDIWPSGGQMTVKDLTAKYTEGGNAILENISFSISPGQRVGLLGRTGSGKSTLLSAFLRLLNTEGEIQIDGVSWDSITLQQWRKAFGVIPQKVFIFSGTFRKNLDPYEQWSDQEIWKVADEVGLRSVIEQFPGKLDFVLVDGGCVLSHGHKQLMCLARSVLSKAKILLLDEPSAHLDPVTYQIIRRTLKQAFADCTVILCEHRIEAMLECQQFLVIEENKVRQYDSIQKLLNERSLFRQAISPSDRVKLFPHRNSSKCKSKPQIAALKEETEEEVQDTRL

Compound	inhibition [1]	IC50 [2]	IC50 [3]
O=C[C@H](O)[C@@H](O)[C@@H](O)[C@H](O)CO [GALACTOSE]	inactive	9100 µM	
CC(=O)N[C@H]1[C@H](O[C@@H]2[C@H](O[C@]3(C(=O)O)C[C@H](O)[C@@H](NC(C)=O)[C@H]([C@H](O)[C@H](O)CO)O3)[C@@H](O)[C@H](O[C@H]3[C@H](O)[C@@H](O)[C@H](N(Cc4cn([C@@H]5[C@@H](OC(C)=O)O[C@@H](n6cc(CN(C(C)=O)[C@@H]7O[C@H](CO)[C@@H](O[C@@H]8O[C@H](CO)[C@H](O[C@@H]9O[C@H](CO)[C@H](O)[C@H](O[C@@H]%10O[C@H](CO)[C@H](O)[C@H](O)[C@H]%10O)[C@H]9NC(C)=O)[C@H](O[C@]9(C(=O)O)C[C@H](O)[C@@H](NC(C)=O)[C@H]([C@H](O)[C@H](O)CO)O9)[C@H]8O)[C@H](O)[C@H]7O)nn6)[C@H](OC(C)=O)[C@H]5OC(C)=O)nn4)C(C)=O)O[C@@H]3CO)O[C@@H]2CO)O[C@H](CO)[C@H](O)[C@@H]1O[C@@H]1O[C@H](CO)[C@H](O)[C@H](O)[C@H]1O	inactive	0.018 µM	0.008 µM
CC(=O)N[C@H]1[C@H](O[C@@H]2[C@H](O[C@]3(C(=O)O)C[C@H](O)[C@@H](NC(C)=O)[C@H]([C@H](O)[C@H](O)CO)O3)[C@@H](O)[C@H](O[C@H]3[C@H](O)[C@@H](O)[C@H](N(Cc4cn(CCOCCOCCOCCO)nn4)C(C)=O)O[C@@H]3CO)O[C@@H]2CO)O[C@H](CO)[C@H](O)[C@@H]1O[C@@H]1O[C@H](CO)[C@H](O)[C@H](O)[C@H]1O	inactive	0.424 µM	0.11 µM
